According to the METLIN SMRT retention time set (Domingo-Almenara et al. 2019):

test: gradient 5% acetonitrile 3 min, to 50% in 2 min, to 85% in 15 min, held 3 min, 100 µL/min; conditions: column: Zorbax Extend-C18 2.1 x 50 mm; eluents: water / acetonitrile, 0.1% formic acid
Method in brief: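 Over 3 months, pure standards in mixtures of ~100 molecules were run by HPLC coupled to a quadrupole time-of-flight mass spectrometer in positive and negative ionization mode. The column was a Zorbax Extend-C18 (2.1 × 50 mm, 1.8 μm) at 100 μL/min, eluted with water and acetonitrile each holding 0.1% formic acid, with 40 μL dead and 900 μL dwell volumes. Retention time was determined from adduct peaks chosen by software and checked manually.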

Compound | RP-LC retention time [s]
CCC(=O)c1cn(CC(=O)NCc2cc3c(cc2OC)OCCCO3)c2ccccc12 | 837
Cc1ccc2[nH]cc(CCN3CC(C(=O)NCc4ccccc4Cl)CC3=O)c2c1 (stereo not given) | 846
COc1cccc(CC(=O)N2CCC3(CC2)NCc2ccccc2-n2ccnc23)c1 | 572
Cc1cc(C)c2c(n1)sc1c(N3CCC(C(=O)N4CCN(c5ccccn5)CC4)CC3)ncnc12 | 668
Cc1ccc(-c2ccc(-n3nc(C)c(S(=O)(=O)Nc4ccc5c(c4)OCCO5)c3C)nn2)cc1C | 1100
O=C(Cc1ccccc1Cl)NC1CCN(c2ccc(=O)n(CC3CC3)n2)C1 (stereo not given) | 760
COc1cc(Cl)ccc1C(=O)N1CCN=C1N1CCN(c2ccccc2F)CC1 | 749
COCCCNC(=O)CN1c2ccccc2NC2=C(C(=O)CC(C)(C)C2)C1c1ccc(C)cc1 (stereo not given) | 822
COc1ccc(-c2cc(=O)n3c4ccccc4n(CC(=O)Nc4ccc(F)cc4)c3n2)cc1 | 1010
COc1ccc(CC(=O)N2CCC3(CC2)C(=O)N(C)c2ccccc23)cc1OC | 752
COc1ccc(-c2nc3ccccn3c2Nc2ccc(C)cc2)cc1O | 663
Cc1ccc(CNC(=O)C2(C)CN(S(C)(=O)=O)CC(=O)N2c2ccc(Cl)cc2)cc1 (stereo not given) | 850
Cc1ccc2c(c1)N(S(C)(=O)=O)CCC(C(=O)Nc1ccc(Br)cc1)O2 (stereo not given) | 1020
CC(C)NC(=O)c1ccc(OCC2CCCN2C(=O)c2ccoc2)cc1 (stereo not given) | 747
Cc1ccc(Nc2c(-c3ccc(N(C)C)cc3)nc3cnccn23)c(Br)c1 | 990
Cc1nn(CCCC(=O)Nc2cccc(F)c2)c(=O)c2nn(-c3ccccc3)c(C)c12 | 709
CC(C)c1ccc(Nc2c(-c3ccc(N(C)C)cc3)nc3cnccn23)cc1 | 1010

Compound | RP-LC retention time [s]
Cc1cc(N2CCN(C)CC2)nc2ccc(NC(=S)NCCN3CCc4ccccc4C3)cc12 | 538
Cc1ccc(CC(=O)NC2CCN(c3cc(-c4ccc(Cl)cc4)[nH]n3)C2)cc1 (stereo not given) | 807
Cc1ccn2cc(-c3ccc(C)c(NS(=O)(=O)c4ccccc4)c3)nc2c1 | 655
COc1cc(NC(=O)Cn2nc3c4ccc(F)cc4ncn3c2=O)cc(OC)c1 | 715
CCn1cc(C(=O)N2CCc3ccccc32)c2nn(-c3ccccc3)c(=O)c-2c1 | 803
CC(=O)N1CCCC(CCc2nnc(C3CCOCC3)o2)C1 (stereo not given) | 608
CC(C)(C)C(=O)Nc1ccc(C(=O)NCCNC(=O)Nc2ccccc2Cl)cc1 | 738
Cc1noc([C@@H]2CN(C(=O)Cc3c(C)noc3C)C[C@H]2C(N)=O)n1 | 593
Cc1ccc2nc(NC(=O)CN3CCc4nc(NC(=O)C5CC5)sc4C3)sc2c1 | 600
COc1cccc(CNC(=O)C2(C)CCCN(C(=O)Nc3cccc(F)c3)C2)c1 (stereo not given) | 872
CC(C)n1nnc2cc(S(=O)(=O)N3CCCC(C(=O)N4CCCCCC4)C3)ccc21 (stereo not given) | 886
COc1ccc2[nH]cc(CCNC(=O)c3cc(-c4ccccn4)nc4ccccc34)c2c1 | 814
Cc1ccccc1N1CCN(c2ncnc3scc(-c4cccs4)c23)CC1 | 992
CCN(CC)C(=O)c1cnc2snc(C)c2c1N1CCC(C(=O)Nc2c(C)cc(C)cc2C)CC1 | 901
COc1ccccc1C1(CNC(=O)Nc2ccccc2F)CCOCC1 | 810
CCc1ccc(S(=O)(=O)c2cnc(N3CCN(c4cc(C)ccc4C)CC3)nc2N)cc1 | 1400

Results, then the molecule that gave them:

RP-LC retention time [s] | Compound
755 | O=C(Nc1ccc2c(c1)CCN(Cc1ncn[nH]1)C2)c1ccccc1-c1ccc(C(F)(F)F)cc1
772 | CCN(C(=O)Cc1csc2nc(-c3ccc(OC)c(OC)c3)cn12)c1ccccc1
742 | Cc1cc(NC(=O)C(=O)NCc2nc(-c3ccccc3)no2)no1
723 | CNC(=O)N1CCc2c(c(-c3nc(-c4ccc(F)cc4)no3)nn2C)C1
647 | O=C(c1nnc(-c2ccc(S(=O)(=O)N3CCOCC3)cc2)o1)N1CCN(C2CCCCC2)CC1
707 | COc1ccc(NC(=O)C2(C)Oc3cccnc3NC2=O)c(OC)c1 (stereo not given)
578 | O=C(CSc1ccc(-n2ccnc2)nn1)N1CCc2ccccc21
603 | OCCn1cc(-c2ccc3c(c2)CC/C3=N\O)c(-c2ccncc2)n1
857 | CSCc1csc(NC(=O)c2ccc(F)c(F)c2)n1
702 | O=C(CC(c1ccccc1)c1ccccc1)NCCCn1ncccc1=O
539 | COCCNC(=O)N1CCCCC1c1nncn1Cc1ccccc1 (stereo not given)
637 | O=C(CCCS(=O)(=O)c1ccc(F)cc1)Nc1nnc(-c2ccno2)o1
575 | O=C(c1cc(Br)ccc1Cl)N1CCN(c2ccc(-n3ccnc3)nn2)CC1
809 | O=C(NC1CC1)C1CCN(c2nc3ccc(-c4ccsc4)nc3s2)CC1
671 | COc1ccc(-c2csc3nc[nH]c(=O)c23)cc1
904 | CCNS(=O)(=O)c1cccnc1Nc1ccccc1

RP-LC retention time [s] | Compound
1030 | CCc1ccc(S(=O)(=O)N2CCc3c(c(-c4nnc(-c5ccccc5)o4)nn3C)C2)cc1
765 | CCN1C(=O)c2cccnc2Sc2cc(CNC(=O)c3ccc(F)cc3)ccc21
661 | COc1ccc(CCNC(=O)Cc2csc3nc(-c4ccc(OC)c(OC)c4)cn23)cc1OC
673 | CCc1noc(-c2cccnc2N2CCCN(Cc3cc(F)cc(F)c3)CC2)n1
659 | CCc1nc2cccnc2n1-c1ccc(C(=O)NC)cc1
874 | CCCc1cc(C2CCCN2C(=O)NCCc2ccccc2)no1 (stereo not given)
730 | CNC(=O)[C@H]1O[C@@H](n2cnc3c(NCc4cccc(I)c4)ncnc32)C(O)[C@H]1O (stereo not given in full)
639 | Cc1ccc(-c2nc(-c3ccc4c(c3)ncn4CCN3CCCC3)no2)s1
724 | CCOC(=O)CCNC(=O)N1CCc2cc(-c3ccc(C(=O)N4CCOCC4)cc3)ccc21
1250 | CCOc1ccccc1NC(=O)c1sc(-c2cn(CC)c3ncccc23)nc1C
648 | CCC(C)n1nnc2cc(S(=O)(=O)N3CCC(C(=O)NCc4cccnc4)CC3)ccc21 (stereo not given)
704 | O=C(Cc1ccsc1)NCc1cccnc1Oc1ccccc1
747 | Nc1cc(C2CCN(S(=O)(=O)Cc3ccc(F)cc3)CC2)no1
1150 | Cc1cc(C)cc(-n2ccnc(NC(=O)Nc3ccc(F)c(Cl)c3)c2=O)c1
486 | NC(=O)CSc1nnc(-c2ccncc2)o1
578 | O=C(NCc1ccccc1)N1CCN(c2cnn3c(C4CC4)nnc3c2)CC1
